From patent US7943607B2, “Heteroaryl benzamide derivatives for use as GLK activators in the treatment of diabetes” (AstraZeneca AB, priority 2005, dated 2011)

Legend:
[1] = target: T1, recombinant human pancreatic GLK (Homo sapiens, UniProt P35557); assay: biochemical
T1 sequence (P35557 1-465): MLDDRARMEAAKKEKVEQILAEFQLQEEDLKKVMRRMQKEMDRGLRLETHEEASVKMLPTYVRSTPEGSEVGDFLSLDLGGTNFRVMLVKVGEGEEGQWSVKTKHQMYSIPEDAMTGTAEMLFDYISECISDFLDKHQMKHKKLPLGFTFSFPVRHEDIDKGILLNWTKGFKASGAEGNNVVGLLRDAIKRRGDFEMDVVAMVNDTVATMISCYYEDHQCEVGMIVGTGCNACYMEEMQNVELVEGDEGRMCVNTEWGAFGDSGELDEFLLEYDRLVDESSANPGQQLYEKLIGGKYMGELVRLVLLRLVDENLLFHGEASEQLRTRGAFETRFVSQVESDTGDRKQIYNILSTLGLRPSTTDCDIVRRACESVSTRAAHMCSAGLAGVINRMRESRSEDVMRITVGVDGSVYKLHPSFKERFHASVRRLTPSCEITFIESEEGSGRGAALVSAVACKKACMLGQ

Zucker obese fa/fa rats = assay: Oral Glucose Tolerance Test (OGTT); type: in vivo, rat; conditions: 10 mg/kg; given orally 120 minutes before oral glucose 2 g/kg; Zucker obese fa/fa rats on high fat diet
Procedure: Oral glucose tolerance tests were done on conscious Zucker obese fa/fa rats (age 12-13 weeks or older) fed a high fat diet (45% kcal fat) for at least two weeks prior to experimentation. The animals were fasted for 2 hours before use for experiments. A test compound or a vehicle was given orally 120 minutes before oral administration of a glucose solution at a dose of 2 g/kg body weight. Blood glucose levels were measured using a Accucheck glucometer from tail bled samples taken at different time points before and after administration of glucose (time course of […]). A time curve of the blood glucose levels was generated and the area-under-the-curve (AUC) for 120 minutes was calculated (the time of glucose administration being time zero). Percent reduction in glucose excursion was determined using the AUC in the vehicle-control group as zero percent reduction.

For C[C@@H](CO)Oc1cc(Oc2cc3c(cc2F)S(=O)(=O)CCCO3)cc(C(=O)Nc2ccn(C)n2)c1 [Example 3, 3-[(7-Fluoro-5,5-dioxido-3,4-dihydro-2H-1,5-benzoxathiepin-8-yl)oxy]-5-[(1S)-2-hydroxy-1-methylethoxy]-N-(1-methyl-1H-pyrazol-3-yl)benzamide], the EC50 [1] was 38 nM and the “OGTT activity (percent reduction in glucose excursion, AUC vs vehicle control)” value (Zucker obese fa/fa rats) was 29%.
